Legend:
[1] = tested on: mitochondria membrane isolated from BMK-D3 cells; experiment: in vitro cytochrome c release from isolated mitochondria; type: biochemical, mouse; conditions: synthetic peptide 100 μM, 1 hour at 37° C.
Procedure: Mitochondria-free cytosol was prepared as previously described (Ko et al., 2003a). Briefly, 24 hours after transfection, HEK293 cells were collected by scraping, washed twice with ice-cold PBS, suspended in […] extraction buffer (50 mM PIPES-KOH, pH 7.4, 200 mM mannitol, 70 mM sucrose, 50 mM KCl, 5 mM EGTA, 2 mM MgCl2, 1 mM dithiothreitol and protease inhibitors), and incubated on ice for 30 minutes. Cells were lysed by Dounce homogenization and homogenates were centrifuged at 100,000 g for 15 minutes at 4° C. Supernatants were harvested and 20 μg of protein was analyzed by western blotting using monoclonal anticytochrome c antibody. For in vitro analysis of cytochrome c release, heavy membranes enriched in mitochondria were isolated from BMK-D3 cells using a mitochondria fractionation kit (Active Motif) according to the instructions of the manufacturer. Isolated mitochondria were diluted to a concentration of 1 mg/ml in the extraction buffer and incubated with synthetic ATAP or mHR7 peptides (100 μM) or DMSO as control for 1 hour at 37° C. The reactions were then centrifuged at 13,000 g for 10 minutes and the resulting pellets and supernatants were analyzed by SDS-PAGE.

[2] = planar lipid bilayer reconstitution, electrophysiology
Procedure: The 29-mer ATAP peptide ([…]) (SEQ ID NO.: 36) corresponding to the C-terminus of Bfl1 and its mutant mHR7 (KFEP-KSGWMTFLQVTG-LICQMLSLLKQYC) (SEQ ID NO.: 50) were synthesized by Abgent (San Diego, Calif.) with 99% purity as measured by HPLC and mass spectrometry. The peptides were dissolved in DMSO to make a 10 mM stock. Phospholipids were purchased from Avanti Polar Lipids (Birmingham, Ala.). Electrophysiological analysis was performed as described (Lam et al., 1998; Ma et al., 1988). Lipid bilayer membranes were formed across an aperture of 200 μm diameter with a 1:1 mixture of bovine brain phosphatidylethanolamine and bovine brain phosphatidylserine dissolved in n-decane at a concentration of 50 mg/ml. The recording solutions contained: cis, 200 mM KCl and 10 mM HEPES-Tris (pH 7.4); trans, 50 mM NaCl, 10 mM HEPES-Tris (pH 7.4). 1 n1 of 10 mM peptides dissolved in DMSO were added into 900 n1 of cis solution and fused into the bilayer. Voltage manipulation and currents were measured using an Axopatch 200 A amplifier (Axon Instruments, Foster City, Calif.). Data analyses were preformed with pClamp and TIPS software.

[3] = tested on: E. coli; experiment: toxicity of bacterial expression; type: cell-based; conditions: data not shown
[4] = tested on: HEK293 cells; experiment: β-galactosidase reporter assay of cell viability after co-transfection; type: cell-based; conditions: HEK293, 24 h after co-transfection, n=5
Procedure: (§1) Apoptotic cell death was monitored after transfection of expression plasmids into HEK293, HeLa, MCF-7 or BMK D3 cells. 2×10^5 cells were cultured in 35-mm wells for 24 hours in Dulbecco's modified Eagle's medium (DMEM) supplemented with 10% fetal bovine serum. Cells were transfected using the Lipofectamine 2000 reagent (Invitrogen), with 1 μg of the indicated expression plasmids and further cultured in the absence or presence of 50 μM of pan-caspase inhibitor, Q-VD-OPH (OPH, Enzyme Systems Products). For morphological assessment of apoptotic cell death, cells were plated onto LabTek II chamber slides (Nalgen Nunc International) at densities of 5×10^4 cells per well. 24 hours after transfection, cells were washed with phosphate-buffered saline (PBS) prior to fixation with 4% formaldehyde. […] Cell death was also measured by propidium iodide (PI) exclusion. […] Cells were observed and photographed with a fluorescence microscope at three different fields containing approximately 200 GFP-positive cells. GFP and PI double-positive cells were counted as dead cells. Quantitative analysis of cell viability was determined by _-galactosidase reporter assay according to the procedures as described (Chittenden et al., 1995; Wood and Newcomb, 2000). […] At 24 hours following transfection, cells were harvested and β-galactosidase activity was measured using β-Galactosidase Enzyme Assay System (Promega). […]

[5] = tested on: HEK293 cells; experiment: cell death by propidium iodide (PI) staining / exclusion after transfection; type: cell-based; conditions: HEK293, 24 h after transfection
Procedure: as §1

| Molecule | cytochrome c release from isolated mitochondria [1] | changes in membrane conductance ([2]; peptide 11-44 μM, n=35) | reversal potential for currents ([2]; 200 mM KCl (cis) / 50 mM NaCl (trans)) | rupture of the lipid bilayer, time after addition of the peptide ([2]; peptide >22.2 μM, n>30) | toxicity of expression in E. coli [3] | toxicity of expression in E. coli ([3]; listed as Bfl-1 TA peptide) | β-galactosidase activity [4] | cell death by PI staining [5] |
| --- | --- | --- | --- | --- | --- | --- | --- | --- |
| KFEP-KSGWMTFLQVTG-LICQMLSLLKQYC (KFEPKSGWMTFLEVTGLICEMLSLLKQYC; (1)..(29) K163L - ATAP; listed as Homo sapiens) [mHR7 peptide, synthetic mutant of the 29-mer ATAP peptide] | not observed | did not induce any notable changes in membrane conductance |  |  |  |  |  |  |
| KFEPKSGWMTFLEVTGKICEMLSLLKQYC ((1)..(29) ATAP peptide derived from residues 147-175 of Bfl-1; listed as Homo sapiens) [29-mer amphipathic tail-anchoring peptide corresponding to the C-terminus of Bfl1 (a.a. 147-175)] | induced release of cytochrome c |  | ~−30 mV | ≤ 30 min | lysis of the cells | toxic to E. coli cell growth |  |  |
| FLAG-Bfl-1: FLAG-tagged full-length Bfl-1 (protein, UniProt Q16548 1-175, looked up, full-length FLAG tag) MTDCEFGYIYRLAQDYLQCVLQIPQPGSGPSKTSRVLQNVAFSVQKEVEKNLKSCLDNVNVVSVDTARTLFNQVMEKEFEDGIINWGRIVTIFAFEGILIKKLLRQQIAPDVDTYKEISYFVAEFIMNNTGEWIRQNGGWENGFVKKFEPKSGWMTFLEVTGKICEMLSLLKQYC |  |  |  |  |  |  | 1.11±0.06 fold over control | no toxic effect |

— US9505821B2, “ATAP peptides, nucleic acids encoding the same and associated methods of use” (Rutgers, The State University of New Jersey, priority 2006, dated 2016)
